Active and inactive are the calls of the source.
Legend:
[1] = ADAM10 protease inhibitors, dose response, selectivity assay for ADAM17 exosite inhibitor project, biochemical, FRET peptide substrate, recombinant human ADAM10 (AID 743259);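 note: ADAM10 enzyme cleaving a FRET peptide substrate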
[2] = target: Disintegrin and metalloproteinase domain-containing protein 17 (Homo sapiens, UniProt P78536); test: exosite inhibitors of ADAM17, dose response, biochemical (AID 743260)
[3] = target: T1, Tyrosyl-DNA phosphodiesterase 2 (Homo sapiens, UniProt O95551); test: human TDP2 enzyme inhibitors, dose response, biochemical, epi absorbance, IC50 (AID 743297)
T1 sequence (O95551 whole entry): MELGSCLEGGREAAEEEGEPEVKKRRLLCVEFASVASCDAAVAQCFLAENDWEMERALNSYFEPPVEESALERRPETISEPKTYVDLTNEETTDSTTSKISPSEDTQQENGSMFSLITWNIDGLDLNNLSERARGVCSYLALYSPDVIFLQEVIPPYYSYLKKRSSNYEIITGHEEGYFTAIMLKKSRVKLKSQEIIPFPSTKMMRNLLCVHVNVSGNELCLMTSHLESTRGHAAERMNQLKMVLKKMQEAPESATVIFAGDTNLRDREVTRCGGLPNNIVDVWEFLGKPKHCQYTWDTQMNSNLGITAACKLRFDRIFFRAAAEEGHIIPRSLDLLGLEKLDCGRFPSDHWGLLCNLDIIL

[4] = target: T2, Replicative DNA helicase DnaB (Mycobacterium tuberculosis, UniProt P9WMR3); test: DnaB intein splicing inhibitors, dose response, biochemical, cell-free fluorescence (AID 449749); type: functional
T2 sequence (P9WMR3 whole entry): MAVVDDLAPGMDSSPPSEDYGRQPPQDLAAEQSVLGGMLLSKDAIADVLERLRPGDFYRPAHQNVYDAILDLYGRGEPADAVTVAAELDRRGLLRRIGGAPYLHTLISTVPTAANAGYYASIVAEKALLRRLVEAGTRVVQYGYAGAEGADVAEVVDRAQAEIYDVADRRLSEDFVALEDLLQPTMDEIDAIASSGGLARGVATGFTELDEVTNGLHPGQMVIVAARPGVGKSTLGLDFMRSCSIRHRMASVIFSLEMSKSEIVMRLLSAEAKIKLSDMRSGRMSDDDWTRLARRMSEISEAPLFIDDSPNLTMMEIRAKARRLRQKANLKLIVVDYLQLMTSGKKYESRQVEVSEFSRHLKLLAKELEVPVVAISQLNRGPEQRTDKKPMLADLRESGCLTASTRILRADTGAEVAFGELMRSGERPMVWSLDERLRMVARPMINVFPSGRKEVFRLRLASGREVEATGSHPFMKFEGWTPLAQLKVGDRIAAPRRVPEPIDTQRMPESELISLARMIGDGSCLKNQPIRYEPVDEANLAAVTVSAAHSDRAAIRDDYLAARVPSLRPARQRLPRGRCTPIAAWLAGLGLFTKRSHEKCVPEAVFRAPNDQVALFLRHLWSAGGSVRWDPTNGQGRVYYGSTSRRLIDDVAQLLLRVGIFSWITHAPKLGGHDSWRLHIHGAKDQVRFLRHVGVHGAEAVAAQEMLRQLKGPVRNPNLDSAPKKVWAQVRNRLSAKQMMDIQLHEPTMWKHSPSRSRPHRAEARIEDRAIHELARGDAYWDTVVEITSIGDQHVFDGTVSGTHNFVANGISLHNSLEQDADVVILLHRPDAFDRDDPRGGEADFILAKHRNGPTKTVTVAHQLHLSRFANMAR

[5] = target: T3, Sentrin-specific protease 8 (Homo sapiens, UniProt Q96LD8); type: functional
T3 sequence (Q96LD8 whole entry): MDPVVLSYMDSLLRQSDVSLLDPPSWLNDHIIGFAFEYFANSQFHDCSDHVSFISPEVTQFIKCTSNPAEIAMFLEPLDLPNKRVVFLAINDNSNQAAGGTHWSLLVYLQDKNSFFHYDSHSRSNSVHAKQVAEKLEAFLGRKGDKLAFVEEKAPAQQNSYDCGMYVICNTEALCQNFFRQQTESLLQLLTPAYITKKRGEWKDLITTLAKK

[6] = target: T3, Sentrin-specific protease 8; type: functional; remark: listed apart in the source
[7] = microbe, parasite or virus in culture; type: functional; details: Mycobacterium tuberculosis
[8] = system: INS1; test: beta cell apoptosis inhibitors, cytokine rescue, dose response, luminescence, retest (AID 449756); type: functional, cell-based; details: Rattus norvegicus;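 note: cell death triggered by IL-1 beta plus TNF-alpha plus IFN-gamma mixture; protective hits raise ATP signal compared with cytokine alone wells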
[9] = target: T4, Sentrin-specific protease 6 (Homo sapiens, UniProt Q9GZR1); type: functional;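 note: Luminescence-based dose-response confirmatory assay of SENP6 inhibition, following up an ultra-high-throughput screen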
T4 sequence (Q9GZR1 whole entry): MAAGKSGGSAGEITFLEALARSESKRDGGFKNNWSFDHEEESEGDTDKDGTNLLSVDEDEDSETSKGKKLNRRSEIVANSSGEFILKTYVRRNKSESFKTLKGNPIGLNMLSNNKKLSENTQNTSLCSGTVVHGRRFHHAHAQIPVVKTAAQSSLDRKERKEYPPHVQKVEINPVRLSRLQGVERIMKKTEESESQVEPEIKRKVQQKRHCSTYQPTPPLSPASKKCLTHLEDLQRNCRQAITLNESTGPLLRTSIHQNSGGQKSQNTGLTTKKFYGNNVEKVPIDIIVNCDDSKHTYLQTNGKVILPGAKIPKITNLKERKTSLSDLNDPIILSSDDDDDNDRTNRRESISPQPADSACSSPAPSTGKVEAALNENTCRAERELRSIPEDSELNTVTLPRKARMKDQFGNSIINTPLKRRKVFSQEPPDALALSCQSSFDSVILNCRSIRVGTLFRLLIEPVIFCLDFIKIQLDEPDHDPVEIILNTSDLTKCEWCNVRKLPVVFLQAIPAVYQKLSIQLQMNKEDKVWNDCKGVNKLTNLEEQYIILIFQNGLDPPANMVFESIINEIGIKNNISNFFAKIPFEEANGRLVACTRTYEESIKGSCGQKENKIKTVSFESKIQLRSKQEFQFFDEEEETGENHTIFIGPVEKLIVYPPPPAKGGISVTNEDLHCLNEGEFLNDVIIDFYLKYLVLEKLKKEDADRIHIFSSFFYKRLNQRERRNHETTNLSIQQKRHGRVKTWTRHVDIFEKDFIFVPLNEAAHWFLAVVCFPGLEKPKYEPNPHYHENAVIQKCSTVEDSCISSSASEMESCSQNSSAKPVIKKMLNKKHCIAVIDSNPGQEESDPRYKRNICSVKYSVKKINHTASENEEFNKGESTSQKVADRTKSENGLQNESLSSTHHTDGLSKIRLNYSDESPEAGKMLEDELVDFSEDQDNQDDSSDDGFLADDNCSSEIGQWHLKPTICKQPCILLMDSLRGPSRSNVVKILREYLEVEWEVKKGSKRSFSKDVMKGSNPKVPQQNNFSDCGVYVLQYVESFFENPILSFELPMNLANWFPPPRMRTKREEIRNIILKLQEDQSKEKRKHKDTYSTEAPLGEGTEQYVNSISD

[10] = target: T3, Sentrin-specific protease 8; type: functional; remark: listed apart in the source
[11] = target: T5, Heat shock factor protein 1 (Mus musculus, UniProt P38532); test: HSF1 potentiators in luciferase reporter cells, confirmation, cell-based, NIH3T3, luminescence, dose retest (AID 435004); type: functional;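 note: stress induced by proteasome inhibitor MG132 added 30 min after compound; luciferase reporter driven by HSF1 response element in NIH3T3 cells; actives raise luminescence as potentiators of the MG132 stress response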
T5 sequence (P38532 whole entry): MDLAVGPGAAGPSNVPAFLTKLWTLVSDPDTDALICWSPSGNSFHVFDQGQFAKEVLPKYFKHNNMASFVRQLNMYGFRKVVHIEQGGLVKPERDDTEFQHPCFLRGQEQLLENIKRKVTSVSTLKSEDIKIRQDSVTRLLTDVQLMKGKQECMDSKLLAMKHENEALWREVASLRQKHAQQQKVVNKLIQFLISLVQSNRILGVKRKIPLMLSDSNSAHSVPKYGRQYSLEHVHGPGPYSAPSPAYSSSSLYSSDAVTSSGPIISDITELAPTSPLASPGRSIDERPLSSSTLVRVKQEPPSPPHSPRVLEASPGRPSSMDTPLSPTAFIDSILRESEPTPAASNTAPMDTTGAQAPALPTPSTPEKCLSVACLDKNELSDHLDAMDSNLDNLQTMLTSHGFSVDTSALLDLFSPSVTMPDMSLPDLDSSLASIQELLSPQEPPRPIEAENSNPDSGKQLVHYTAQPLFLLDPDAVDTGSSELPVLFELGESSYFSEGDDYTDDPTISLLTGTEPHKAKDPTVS

[12] = target: T6, Sentrin-specific protease 7 (Homo sapiens, UniProt Q9BQF6); type: functional;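 note: Luminescence-based dose-response confirmation of ultra-high-throughput screening hits, measuring inhibition of SENP7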
T6 sequence (Q9BQF6 whole entry): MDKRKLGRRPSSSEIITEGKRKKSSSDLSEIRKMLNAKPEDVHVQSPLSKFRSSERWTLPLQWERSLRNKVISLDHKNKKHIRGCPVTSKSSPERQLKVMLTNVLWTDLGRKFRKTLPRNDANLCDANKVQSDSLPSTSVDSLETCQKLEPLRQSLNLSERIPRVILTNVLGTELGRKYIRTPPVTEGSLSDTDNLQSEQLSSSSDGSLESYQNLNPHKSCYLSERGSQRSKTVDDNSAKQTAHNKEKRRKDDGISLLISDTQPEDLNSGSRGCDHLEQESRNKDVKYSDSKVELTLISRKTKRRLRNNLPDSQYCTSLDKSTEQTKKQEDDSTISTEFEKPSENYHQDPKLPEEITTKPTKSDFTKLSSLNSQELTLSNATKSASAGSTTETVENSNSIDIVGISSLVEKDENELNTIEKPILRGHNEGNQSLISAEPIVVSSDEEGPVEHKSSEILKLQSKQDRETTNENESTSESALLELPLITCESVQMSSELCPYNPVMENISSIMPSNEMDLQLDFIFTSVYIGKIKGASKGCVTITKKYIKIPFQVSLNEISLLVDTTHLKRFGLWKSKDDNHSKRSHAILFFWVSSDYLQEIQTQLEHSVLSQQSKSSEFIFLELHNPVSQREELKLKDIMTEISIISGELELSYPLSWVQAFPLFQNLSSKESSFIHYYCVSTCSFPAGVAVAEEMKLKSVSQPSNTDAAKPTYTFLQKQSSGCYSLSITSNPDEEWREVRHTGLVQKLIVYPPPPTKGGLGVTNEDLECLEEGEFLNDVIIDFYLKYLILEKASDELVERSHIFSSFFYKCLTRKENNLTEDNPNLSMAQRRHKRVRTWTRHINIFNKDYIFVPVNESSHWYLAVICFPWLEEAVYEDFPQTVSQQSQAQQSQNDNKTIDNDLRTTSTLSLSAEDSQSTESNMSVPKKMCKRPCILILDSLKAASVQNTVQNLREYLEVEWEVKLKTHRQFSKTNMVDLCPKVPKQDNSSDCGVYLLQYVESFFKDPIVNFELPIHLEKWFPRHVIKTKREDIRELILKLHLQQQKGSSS

[13] = target: T7, Caspase-3 (Homo sapiens, UniProt P42574); type: functional;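 note: Dose-response selectivity test against caspase-3 for candidate inhibitors of sentrin-specific proteases (SENPs)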
T7 sequence (P42574 whole entry): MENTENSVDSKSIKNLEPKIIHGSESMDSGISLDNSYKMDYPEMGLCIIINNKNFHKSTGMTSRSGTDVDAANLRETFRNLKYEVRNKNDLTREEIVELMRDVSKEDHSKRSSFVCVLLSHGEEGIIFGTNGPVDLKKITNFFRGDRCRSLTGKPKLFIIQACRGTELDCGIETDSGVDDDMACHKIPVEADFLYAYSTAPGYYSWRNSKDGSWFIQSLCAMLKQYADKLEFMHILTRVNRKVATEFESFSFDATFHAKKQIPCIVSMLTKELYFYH

[14] = target: Genome polyprotein (dengue virus type 2, UniProt P29990); test: Dengue-2 NS5 methyltransferase inhibitors, primary screen, biochemical, confirmation dose response (AID 588689); type: functional
[15] = HepG2 cell cytotoxicity, dose response, cytotoxicity control for Shn3 inhibitor project, CellTiter-Glo, cherry-picked (AID 624134); type: functional, cell-based
[16] = control 3'UTR Renilla luciferase suppression, dose response, counter-screen for Shn3 inhibitor project, cell-based, Clone20-Shn3RL, cherry-picked (AID 624133); type: functional
[17] = Shn3 3'UTR reporter inhibitors, dose response, cell-based, Clone20 osteoblasts, firefly luciferase, cherry-picked (AID 624132); type: functional;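 note: firefly luciferase luminescence from reporter carrying the Shn3 3'UTR in osteoblasts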
[18] = system: Vero; test: Vero cell cytotoxicity, cytotoxicity control for flavivirus capping enzyme inhibitors (AID 588742); type: functional; details: Chlorocebus sabaeus
[19] = target: T8, Caspase-6 (Homo sapiens, UniProt P55212); test: human caspase-6 inhibitors, dose response, biochemical, VEID-R110 fluorescence, cherry-pick (AID 720632)
T8 sequence (P55212 whole entry): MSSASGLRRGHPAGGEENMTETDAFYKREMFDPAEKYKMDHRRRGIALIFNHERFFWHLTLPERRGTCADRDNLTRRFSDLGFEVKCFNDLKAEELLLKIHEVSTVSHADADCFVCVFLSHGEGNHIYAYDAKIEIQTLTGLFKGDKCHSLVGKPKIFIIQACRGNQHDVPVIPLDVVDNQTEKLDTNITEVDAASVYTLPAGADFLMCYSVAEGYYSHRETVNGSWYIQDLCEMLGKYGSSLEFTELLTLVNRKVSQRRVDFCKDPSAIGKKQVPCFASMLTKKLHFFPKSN

[20] = target: Endoplasmic reticulum aminopeptidase 1 (Homo sapiens, UniProt Q9NZ08); test: ERAP1 aminopeptidase inhibitors, dose response, biochemical, cherry-pick, set 2, plate reader (AID 743314)
Endoplasmic reticulum aminopeptidase 1, sequence (Q9NZ08 whole entry): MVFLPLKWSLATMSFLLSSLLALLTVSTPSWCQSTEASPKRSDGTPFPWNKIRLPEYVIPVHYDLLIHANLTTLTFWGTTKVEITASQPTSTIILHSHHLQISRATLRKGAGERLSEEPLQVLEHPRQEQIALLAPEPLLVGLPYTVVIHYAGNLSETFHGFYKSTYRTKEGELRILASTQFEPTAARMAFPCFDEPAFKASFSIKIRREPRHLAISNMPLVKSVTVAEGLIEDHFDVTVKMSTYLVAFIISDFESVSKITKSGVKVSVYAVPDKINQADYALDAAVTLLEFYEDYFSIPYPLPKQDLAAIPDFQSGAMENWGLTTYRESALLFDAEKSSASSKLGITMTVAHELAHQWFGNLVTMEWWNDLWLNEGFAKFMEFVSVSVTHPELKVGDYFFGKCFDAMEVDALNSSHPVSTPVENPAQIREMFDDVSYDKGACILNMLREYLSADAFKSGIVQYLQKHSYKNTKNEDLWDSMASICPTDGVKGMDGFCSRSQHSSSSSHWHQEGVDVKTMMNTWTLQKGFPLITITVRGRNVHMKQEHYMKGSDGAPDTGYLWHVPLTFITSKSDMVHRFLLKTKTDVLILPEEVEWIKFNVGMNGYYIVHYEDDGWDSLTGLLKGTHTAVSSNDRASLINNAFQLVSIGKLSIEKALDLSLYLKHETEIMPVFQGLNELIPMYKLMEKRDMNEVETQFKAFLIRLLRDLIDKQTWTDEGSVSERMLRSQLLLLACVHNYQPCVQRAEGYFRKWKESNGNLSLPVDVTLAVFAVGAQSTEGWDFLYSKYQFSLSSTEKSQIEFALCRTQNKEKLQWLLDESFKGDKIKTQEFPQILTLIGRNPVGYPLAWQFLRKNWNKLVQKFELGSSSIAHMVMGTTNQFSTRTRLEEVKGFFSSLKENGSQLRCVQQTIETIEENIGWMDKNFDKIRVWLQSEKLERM

Disintegrin and metalloproteinase domain-containing protein 17, sequence (P78536 whole entry, the tested form may be a part): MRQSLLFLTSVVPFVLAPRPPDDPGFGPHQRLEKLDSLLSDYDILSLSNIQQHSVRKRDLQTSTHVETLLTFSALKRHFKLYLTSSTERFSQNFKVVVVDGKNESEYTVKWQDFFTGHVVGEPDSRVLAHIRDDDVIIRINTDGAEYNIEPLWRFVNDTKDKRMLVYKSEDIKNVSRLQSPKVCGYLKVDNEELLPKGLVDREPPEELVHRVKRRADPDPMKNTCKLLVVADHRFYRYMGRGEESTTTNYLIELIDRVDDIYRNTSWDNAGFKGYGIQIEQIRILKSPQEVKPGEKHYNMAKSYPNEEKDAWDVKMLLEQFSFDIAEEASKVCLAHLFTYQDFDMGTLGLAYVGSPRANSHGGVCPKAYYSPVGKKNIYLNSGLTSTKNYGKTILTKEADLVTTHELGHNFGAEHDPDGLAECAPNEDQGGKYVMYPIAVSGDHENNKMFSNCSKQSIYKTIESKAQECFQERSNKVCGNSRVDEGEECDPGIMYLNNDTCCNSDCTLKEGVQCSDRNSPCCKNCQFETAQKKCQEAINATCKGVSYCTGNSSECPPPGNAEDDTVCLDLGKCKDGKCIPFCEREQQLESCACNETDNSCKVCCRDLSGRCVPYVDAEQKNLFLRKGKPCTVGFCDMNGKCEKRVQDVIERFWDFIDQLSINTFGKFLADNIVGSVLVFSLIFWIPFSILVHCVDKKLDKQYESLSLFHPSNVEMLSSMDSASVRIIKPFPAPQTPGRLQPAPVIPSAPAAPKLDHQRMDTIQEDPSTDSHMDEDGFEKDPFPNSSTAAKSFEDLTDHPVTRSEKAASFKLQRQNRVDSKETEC
Genome polyprotein, sequence (P29990 2492-3391 limits assumed): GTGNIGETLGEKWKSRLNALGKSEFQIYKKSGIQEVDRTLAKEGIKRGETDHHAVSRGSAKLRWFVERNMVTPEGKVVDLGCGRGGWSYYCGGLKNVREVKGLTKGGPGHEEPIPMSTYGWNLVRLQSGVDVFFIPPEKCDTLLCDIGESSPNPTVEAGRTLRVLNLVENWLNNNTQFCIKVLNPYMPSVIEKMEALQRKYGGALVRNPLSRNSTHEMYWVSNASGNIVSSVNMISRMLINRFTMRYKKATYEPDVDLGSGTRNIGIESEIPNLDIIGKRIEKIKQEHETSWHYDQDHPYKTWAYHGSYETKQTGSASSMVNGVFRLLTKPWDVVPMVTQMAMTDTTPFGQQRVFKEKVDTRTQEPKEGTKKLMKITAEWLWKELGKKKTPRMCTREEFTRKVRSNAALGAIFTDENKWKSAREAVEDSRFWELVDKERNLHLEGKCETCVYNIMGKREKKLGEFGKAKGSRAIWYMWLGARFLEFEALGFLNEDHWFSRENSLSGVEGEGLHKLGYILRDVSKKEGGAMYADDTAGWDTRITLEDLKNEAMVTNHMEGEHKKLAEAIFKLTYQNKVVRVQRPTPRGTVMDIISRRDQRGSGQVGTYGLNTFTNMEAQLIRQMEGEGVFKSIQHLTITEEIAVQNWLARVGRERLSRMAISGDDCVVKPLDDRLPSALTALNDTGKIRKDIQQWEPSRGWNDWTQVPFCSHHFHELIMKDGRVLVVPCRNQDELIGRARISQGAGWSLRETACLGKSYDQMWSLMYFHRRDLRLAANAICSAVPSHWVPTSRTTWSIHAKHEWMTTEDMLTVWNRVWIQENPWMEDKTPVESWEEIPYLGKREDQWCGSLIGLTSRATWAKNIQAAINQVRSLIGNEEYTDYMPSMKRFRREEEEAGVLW

Clc1ccc(OCCOCCOc2cccc3cccnc23)c(Br)c1
IC50 [1]: > 69.5 µM (inactive)
IC50 [2]: > 69.5 µM (inactive)

Nc1ccc(N2CCOCC2)c2nonc12
IC50 [3]: > 128 µM (inactive)
AC50 [4]: 18.8 µM (active)
IC50 [5]: 2.98 µM (active)
IC50 [6]: 3.67 µM (active)

S=C(Nc1ccc(Cl)cc1)Nc1cccc2cnccc12
IC50 [3]: 130 µM (inactive)
CC50 [7]: > 40 µM (active)
AC50 [8]: > 260 µM (inactive)
IC50 [9]: 2.87 µM (active)
IC50 [10]: 5.49 µM (active)
EC50 [11]: > 260 µM (inactive)
IC50 [12]: 6.24 µM (active)
IC50 [13]: 11.7 µM (active)

CC(=O)N1CCc2c(sc(NC(=O)c3ccc([N+](=O)[O-])o3)c2C(N)=O)C1
IC50 [14]: 89.3 µM (active)
AC50 [15]: 20 µM (active)
AC50 [16]: 13.1 µM (active)
AC50 [17]: 1.85 µM (active)
CC50 [18]: 4.1 µM (active)
AC50 [19]: 12.7 µM (active)

Cc1ccc(NC(=O)c2cc(S(=O)(=O)NCC3CCCO3)ccc2F)cc1 (stereo not given)
AC50 [19]: 45.9 µM (active)

CN1[C@@H]2Cn3c(ccc(/C=C/c4ccccc4)c3=O)[C@H]1[C@@H](C(=O)NC1CCCC1)[C@@H]2CO
AC50 [20]: 9.03 µM (active)

CC(=O)N1[C@@H]2c3ccc(/C=C/c4ccccc4)c(=O)n3C[C@H]1[C@H](CO)[C@H]2C(=O)N(C)C
AC50 [20]: 4.5 µM (active)

COc1ccc(NC(C)C(=O)N/N=C/c2ccccc2OCc2ccc(Br)cc2)cc1 (stereo not given)
IC50 [1]: > 69.5 µM (inactive)
IC50 [2]: > 69.5 µM (inactive)

Reference: ChEMBL document CHEMBL1201862, “PubChem BioAssay data set” (2004)
